Positions count from the first letter of the chain named. Where “and” joins values, the source holds several entries; their conditions need not be identical. Equal entries are not always repeated. Entries after “also recorded” stand apart in the source; their conditions may differ. Where two headings read alike, the source gives them in different places.
Tests used:
WT LCAT [1] = target: T1, WT LCAT (Homo sapiens, UniProt P04180); assay: Differential scanning fluorimetry; assay type: binding; design: hydrolysis of 4-methylumbelliferyl palmitate (MUP) by full-length LCAT; made in house; host or cells: HEK293F (transient transfection, secreted); settings: for Thermal stabilization (DSF): WT LCAT; for Thermal stabilization of WT LCAT (DSF): compound at 10 μM
T1 sequence (P04180 25-440): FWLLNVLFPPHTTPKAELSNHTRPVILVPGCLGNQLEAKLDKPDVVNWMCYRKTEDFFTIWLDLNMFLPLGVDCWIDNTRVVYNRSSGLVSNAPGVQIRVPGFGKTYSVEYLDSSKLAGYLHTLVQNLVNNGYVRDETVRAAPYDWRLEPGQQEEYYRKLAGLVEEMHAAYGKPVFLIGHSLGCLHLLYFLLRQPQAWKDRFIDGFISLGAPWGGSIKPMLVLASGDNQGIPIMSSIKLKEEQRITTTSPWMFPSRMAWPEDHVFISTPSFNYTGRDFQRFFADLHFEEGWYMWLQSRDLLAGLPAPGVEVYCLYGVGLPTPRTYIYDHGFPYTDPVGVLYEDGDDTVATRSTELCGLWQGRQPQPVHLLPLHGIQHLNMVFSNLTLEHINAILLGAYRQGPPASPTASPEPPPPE
Description: Tm values were determined using an Applied Biosystems QuantStudio 7 Flex qPCR machine with two replicates performed at least in triplicate. LCAT at 0.05 mg mL^−1 was diluted into reaction buffer containing 5X Sypro Orange in a final volume of 10 μL in 384-well PCR plates. DMSO or compound 1 was added so that all reactions contained 3% DMSO. The reactions were run from 25–95 °C with a ramp rate of 0.03 °C s^−1. Tm values were determined as the derivative using Protein Thermal Shift software. Significance was determined using a one-way analysis of variance followed by Tukey’s multiple comparisons post-test in GraphPad Prism.

WT LCAT [2] = target: T1, WT LCAT; assay: MUP hydrolysis (esterase) assay; assay type: biochemical; design: hydrolysis of 4-methylumbelliferyl palmitate (MUP) by full-length LCAT; made in house; host or cells: HEK293F (transient transfection, secreted)
Description: (§1) The lipase activity of LCAT was measured using MUP as a substrate. The assay was performed at room temperature in 0.1 M sodium phosphate buffer, pH 7.4 containing 0.01% Triton X-100. 4 μL of LCAT (6 nM final concentration) were dispensed into a 1536-well Greiner solid black plate. The same volume of assay buffer was dispensed into column 1 and 2 for a no-enzyme control. […] After 15 min incubation, 2 μL MUP (16 μM final concentration) was added to initiate the reaction. The hydrolysis of MUP was monitored using a ViewLux plate reader (excitation 380 nm/emission 450 nm) for 20 min. The fluorescence signal was normalized against no-activator and no-enzyme control after subtraction of background signal (t = 0 min). To plot percent activation, in each assay 100% was set at the rate of LCAT or LCAT variant without compound. The resulting data were fitted to a sigmoidal dose response curve.

LCAT Y51S/G71I = target: T2, LCAT Y51S/G71I (Homo sapiens, UniProt P04180, G95I/Y75S); assay: MUP hydrolysis (esterase) assay; assay type: biochemical; settings: compound titrated from 0.04 to 9.5 μM
T2 construct: hydrolysis of 4-methylumbelliferyl palmitate (MUP) by full-length LCAT; made in house; host or cells: HEK293F (transient transfection, secreted)
T2 sequence (P04180 25-440 Y75S/G95I): T1 sequence (P04180 25-440) with Y51S, G71I
Description: as §1

LCAT Y51S = target: T3, LCAT Y51S (Homo sapiens, UniProt P04180, Y75S); assay: MUP hydrolysis (esterase) assay; assay type: biochemical
T3 construct: hydrolysis of 4-methylumbelliferyl palmitate (MUP) by full-length LCAT; made in house; host or cells: HEK293F (transient transfection, secreted)
T3 sequence (P04180 25-440 Y75S): T1 sequence (P04180 25-440) with Y51S
Description: as §1

LCAT G71I = target: T4, LCAT G71I (Homo sapiens, UniProt P04180, G95I); assay: MUP hydrolysis (esterase) assay; assay type: biochemical; settings: compound titrated from 0.04 to 9.5 μM
T4 construct: hydrolysis of 4-methylumbelliferyl palmitate (MUP) by full-length LCAT; made in house; host or cells: HEK293F (transient transfection, secreted)
T4 sequence (P04180 25-440 G95I): T1 sequence (P04180 25-440) with G71I
Description: as §1

[3] = WT, compound titrated from 0.04 to 9.5 μM, read-out: MUP assay EC50
[4] = Y51S, compound titrated from 0.04 to 9.5 μM
[5] = WT, compound titrated from 0.04 to 9.5 μM

| Compound | Thermal stabilization (DSF) (WT LCAT [1]) | EC50 (WT LCAT [2]; [3]) [nM] | Fold activation, MUP esterase assay (LCAT Y51S/G71I) | MUP assay EC50 (LCAT Y51S/G71I) | EC50 (LCAT Y51S; [4]) [nM] | Fold activation, MUP esterase assay (LCAT Y51S; [4]) | EC50 (LCAT G71I) [nM] | Fold activation, MUP esterase assay (LCAT G71I) | EC50 (WT LCAT [2]; full-length WT LCAT, read-out: EC50, MUP hydrolysis) [nM] | MUP EC50 of Y51S relative to WT (LCAT Y51S; fold higher than WT) [fold] | Thermal stabilization of WT LCAT (DSF) (WT LCAT [1]) | Fold activation, MUP esterase assay (WT LCAT [2]; [5]) | MUP assay EC50 (WT LCAT [2]; [5]) | MUP assay EC50 (LCAT Y51S; [4]) | MUP assay EC50 (LCAT G71I) | EC50 (LCAT Y51S/G71I) [nM] |
| --- | --- | --- | --- | --- | --- | --- | --- | --- | --- | --- | --- | --- | --- | --- | --- | --- |
| O=C1CC(O)(C(F)(F)F)c2c(C3CCN(c4cnc(C(F)(F)F)cn4)CC3)n[nH]c2N1 (centres unmarked) [compound 2, 4-Hydroxy-4-(trifluoromethyl)−3-(1-(5-(trifluoromethyl)pyrazin-2-yl)piperidin-4-yl)−4,5-dihydro-1H-pyrazolo[3,4-b]pyridin-6(7H)-one] | stabilize | 280 ± 40 | 0.99 ± 0.03 fold | no effect | 740 ± 200 | 1.8 ± 0.1 fold | > 5000 | 1.7 ± 0.2 fold | – | – | – | – | – | – | – | – |
| N#Cc1cnc(N2CCC(c3n[nH]c4c3C(O)(C(F)(F)F)CC(=O)N4)CC2)cc1C(F)(F)F (centres unmarked) [compound 1, 6-(4-(4-Hydroxy-6-oxo-4-(trifluoromethyl)−4,5,6,7-tetrahydro-1H-pyrazolo[3,4-b]pyridin-3-yl)piperidin-1-yl)−4-(trifluoromethyl)nicotinonitrile] | stabilize | 160 ± 10 | 1.3 ± 0.3 fold | no response; also recorded: no effect | 590 ± 30 | 1.9 ± 0.2 fold | > 5000 | 1.5 ± 0.4 fold | ~150 | 4 | – | – | – | – | – | – |
| O=C1CC(O)(C(F)(F)F)c2c(ncn2C2CCNCC2)N1 (centres unmarked) [compound 6, 7-Hydroxy-1-(piperidin-4-yl)−7-(trifluoromethyl)−6,7-dihydro-1H-imidazo[4,5-b]pyridin-5(4H)-one] | – | – | no effect | no effect | – | no effect | – | no effect | – | – | do not stabilize; also recorded: could not thermal stabilize | no activating effect | no effect | no effect | no effect | – |
| O=C1CC(O)(C(F)(F)F)c2c(ncn2C2CCN(c3cnc(C(F)(F)F)cn3)CC2)N1 (centres unmarked) [compound 3, 7-Hydroxy-7-(trifluoromethyl)−1-(1-(5-(trifluoromethyl)pyrazin-2-yl)piperidin-4-yl)−6,7-dihydro-1H-imidazo[4,5-b]pyridin-5(4H)-one] | stabilize | 320 ± 50 | 1.1 ± 0.06 fold | no effect | 1600 ± 400 | 1.9 ± 0.2 fold | > 5000 | 1.5 ± 0.2 fold | – | – | – | – | – | – | – | – |
| O=c1cc(C(F)(F)F)c2c(ncn2C2CCN(c3cnc(C(F)(F)F)cn3)CC2)[nH]1 [compound 8, 7-(trifluoromethyl)−1-(1-(5-(trifluoromethyl)pyrazin-2-yl)piperidin-4-yl)−1H-imidazo[4,5-b]pyridin-5(4H)-one] | – | 4600 ± 60 | 1.1 ± 0.07 fold | – | > 10000 | 2.8 ± 0.6 fold | > 10000 | 1.2 ± 0.1 fold | – | – | do not stabilize; also recorded: could not thermal stabilize | 3.7 fold and 3.7 ± 0.9 fold | – | – | – | > 10000 |
| O=C1CC(O)(C(F)(F)F)c2c(C3CCN(c4cnc(C(F)(F)F)cn4)CC3)noc2N1 (centres unmarked) [compound 9, 4-hydroxy-4-(trifluoromethyl)−3-(1-(5-(trifluoromethyl)pyrazin-2-yl)piperidin-4-yl)−4,5-dihydroisoxazolo[5,4-b]pyridin-6(7H)-one] | – | 7700 ± 2000 | 0.97 ± 0.003 fold | no effect | > 10000 | 1.1 ± 0.07 fold | – | 0.96 ± 0.01 fold | – | – | do not stabilize; also recorded: could not thermal stabilize | 1.6 fold and 1.6 ± 0.2 fold | – | – | no effect | – |

From publication PMC6277198, “Molecular basis for activation of lecithin:cholesterol acyltransferase by a compound that increases HDL cholesterol” (eLife, 2018)
